Data taken from PMC5013724 (Biochemistry, 2016).
In brackets after ≈: the same amount, converted by molar mass. Entries after “also recorded” stand apart in the source; their conditions may differ. Like-named read-outs stand apart in the source and are kept apart here.

What was measured:
[1] = target: wild-type PR; settings: read-out: Inhibition of PR Ki, published sources, similar values from different sources averaged, ref [48]–[50],[30]; cited from earlier work
[2] = tested on: TFR-PR^S17 precursor, p6pol/PR^S17 site; assay type: biochemical, HIV-1; settings: p6pol/PR^S17 site
[3] = target: TFR-PR^S17 precursor, p6pol/PR^S17 site (Human immunodeficiency virus type 1, UniProt P12497, E523D/G536V/I542V/L578M/M524I/M534L/N525D/V570S, form not given); assay type: biochemical, HIV-1; settings: for Autoprocessing in the presence of inhibitor / Inhibition of the p6pol/PR site: 60 min; for Inhibition of autoprocessing of TFR-PR^S17, initial screening: after 60 min, overall autoprocessing
[4] = target: PR20; settings: read-out: Ki for PR20; ref [34]; cited from earlier work
[5] = tested on: mature PR^S17
[6] = tested on: mature PR^S17; assay type: biochemical, HIV-1; settings: Ki for PR^S17 (kinetics) / Ki for PR
[7] = physchem; settings: pH 5, aqueous buffer
[8] = tested on: wild type TFR-PR precursor; settings: read-out: IC50 for inhibition of autoprocessing of the wild type precursor; during expression in E. coli; ref [16]; cited from earlier work
[9] = tested on: TFR-PR20; settings: up to 150 μM inhibitor, expressed in E. coli; ref [16]; cited from earlier work
[10] = target: TFR-PR^S17 precursor, TFP/p6pol site (Human immunodeficiency virus type 1, UniProt P12497, E523D/G536V/I542V/L578M/M524I/M534L/N525D/V570S, form not given); assay type: biochemical, HIV-1; settings: 60 min
[11] = inhibitor 70 μM (limit of solubility)

Structure (SMILES)	Ki [1] [nM]	Difference in inhibition [autoprocessing, IC50/mature PR^S17, Ki] [2]	Inhibition of autoprocessing of TFR-PR^S17, initial screening ([3]; inhibitor 50 μM)	solubility [7] [µM]	also measured
CC(C)CN(C[C@@H](O)[C@H](Cc1ccccc1)NC(=O)O[C@H]1CCOC1)S(=O)(=O)c1ccc(N)cc1 [APV, amprenavir]	0.2	682	almost complete inhibition		Autoprocessing in the presence of inhibitor ([3]; inhibitor 5 μM): complete autoprocessing; Ki [4]: ~178 nM; Fold higher affinity for PR^S17 relative to PR20 [5]: 16 fold; Relative resistance (PR^S17/PR) ([5]; Ki for PR^S17 (ITC) / Ki for PR): 55
COC(=O)N[C@H](C(=O)N[C@@H](Cc1ccccc1)[C@@H](O)CN(Cc1ccc(-c2ccccn2)cc1)NC(=O)[C@@H](NC(=O)OC)C(C)(C)C)C(C)(C)C [ATV, atazanavir]	0.035	214		42 (≈ 29.6 µg/mL)	Relative resistance (PR^S17/PR) [6]: 2000; Autoprocessing in the presence of inhibitor ([3]; inhibitor 10 μM): complete autoprocessing
CC(C)CN(C[C@@H](O)[C@H](Cc1ccccc1)NC(=O)O[C@H]1CO[C@H]2OCC[C@H]21)S(=O)(=O)c1ccc(N)cc1 [DRV, darunavir]	0.005		almost complete inhibition		IC50 [8]: 1000 to 2000 nM; Inhibition of autoprocessing of the PR20 precursor [9]: no inhibition; also recorded: not inhibited
CC(C)(C)NC(=O)[C@@H]1CN(Cc2cccnc2)CCN1C[C@@H](O)C[C@@H](Cc1ccccc1)C(=O)N[C@H]1c2ccccc2C[C@H]1O [IDV, indinavir]	0.25		partial inhibition		Inhibition of the p6pol/PR site ([3]; inhibitor 50 μM): ~ 50%; Inhibition of the TFP/p6pol site ([10]; inhibitor 50 μM): insignificant inhibition
Cc1cccc(C)c1OCC(=O)N[C@@H](Cc1ccccc1)[C@@H](O)C[C@H](Cc1ccccc1)NC(=O)[C@H](C(C)C)N1CCCNC1=O [LPV, lopinavir]	0.02		almost no inhibition	70 (≈ 44 µg/mL)	Inhibition of the p6pol/PR site [3, 11]: ~ 50%; Inhibition of the TFP/p6pol site [10, 11]: insignificant inhibition
Cc1c(O)cccc1C(=O)N[C@@H](CSc1ccccc1)[C@H](O)CN1C[C@H]2CCCC[C@H]2C[C@H]1C(=O)NC(C)(C)C [NFV, nelfinavir]	0.36	>7.2		42 (≈ 23.8 µg/mL)	Relative resistance (PR^S17/PR) [6]: 16300
CC(C)c1nc(CN(C)C(=O)N[C@H](C(=O)N[C@@H](Cc2ccccc2)C[C@H](O)[C@H](Cc2ccccc2)NC(=O)OCc2cncs2)C(C)C)cs1 [RTV, ritonavir]			almost no inhibition		
CC(C)(C)NC(=O)[C@@H]1C[C@@H]2CCCC[C@@H]2CN1C[C@@H](O)[C@H](Cc1ccccc1)NC(=O)[C@H](CC(N)=O)NC(=O)c1ccc2ccccc2n1 [SQV, saquinavir]	0.39		almost no inhibition		IC50 [8]: 1000 to 2000 nM; Inhibition of autoprocessing of the PR20 precursor [9]: no inhibition; also recorded: not inhibited
